Experimental findings from PubChem BioAssay AID651581 (Sanford-Burnham Center for Chemical Genomics, 2012) are described below.

The source made the active and inactive calls. No rule for the calls is given here. A value given as a limit tells only on which side of the number the result lay.

Test [1] has as its target Hypoxia-inducible factor 1-alpha (Homo sapiens) (UniProt Q16665). As to the kind of experiment: potency against HIF reporters across cell lines – luminescence, panel, selectivity assay for HIF-2a inhibitor project, dose response (AID 651581). To be noted: human cell HIF reporter, HIF-1a.
The target in test [2] is Endothelial PAS domain-containing protein 1 (Homo sapiens) (UniProt Q99814). The test is described as above. To be noted: human cell HIF reporter.

Hypoxia-inducible factor 1-alpha (Homo sapiens), sequence (Q16665 whole entry, looked up, the tested form may be a part): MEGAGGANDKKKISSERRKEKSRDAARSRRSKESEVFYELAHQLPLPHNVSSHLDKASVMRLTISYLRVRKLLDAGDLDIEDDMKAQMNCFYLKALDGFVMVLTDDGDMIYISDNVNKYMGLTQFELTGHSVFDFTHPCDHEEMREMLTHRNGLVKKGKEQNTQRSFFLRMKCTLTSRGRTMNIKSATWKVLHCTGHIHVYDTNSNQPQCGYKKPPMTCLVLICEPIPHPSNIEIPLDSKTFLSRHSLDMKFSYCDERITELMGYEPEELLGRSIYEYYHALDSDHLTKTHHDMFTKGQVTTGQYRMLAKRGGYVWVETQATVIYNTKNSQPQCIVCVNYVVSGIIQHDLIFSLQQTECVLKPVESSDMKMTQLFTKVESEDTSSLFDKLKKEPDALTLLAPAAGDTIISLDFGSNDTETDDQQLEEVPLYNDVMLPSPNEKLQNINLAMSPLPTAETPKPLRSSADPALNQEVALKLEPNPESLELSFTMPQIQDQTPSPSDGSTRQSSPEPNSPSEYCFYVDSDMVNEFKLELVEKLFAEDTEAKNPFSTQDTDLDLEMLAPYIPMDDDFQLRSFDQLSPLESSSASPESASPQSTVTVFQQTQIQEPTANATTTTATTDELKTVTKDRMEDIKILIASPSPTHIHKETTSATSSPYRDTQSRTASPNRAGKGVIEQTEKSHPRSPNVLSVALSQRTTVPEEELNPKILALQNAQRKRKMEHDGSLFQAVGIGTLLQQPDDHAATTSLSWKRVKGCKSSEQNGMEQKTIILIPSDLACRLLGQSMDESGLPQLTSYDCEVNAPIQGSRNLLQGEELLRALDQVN

As a reminder, the IC50 is the concentration needed to halve the response being measured. In the case of `CCOC(=O)C1CCN(Cc2cc(=O)oc3c(C)c(C)ccc23)CC1`, the IC50 was 28.8 µM in test [1] (mean of runs); 31.7 µM in test [1] (run 1); 25.9 µM in test [1] (run 2); 14.2 µM in test [2] (HIF-2a PANC, mean of runs); 19.7 µM in test [2] (HIF-2a PANC, run 1); 8.77 µM in test [2] (HIF-2a PANC, run 2). Besides, the IC50 in test [2] (HIF-2a, mean of runs) was 7.52 µM; in test [2] (HIF-2a, run 1) it was 7.96 µM; in test [2] (HIF-2a, run 2), 7.07 µM.

Regarding `Nc1ccc2oc(-c3cc(Br)ccc3Cl)nc2c1`, the IC50 is 69.1 µM in test [1] (run 1); above 99 µM in test [1] (run 2); 0.506 µM in test [2] (HIF-2a PANC, mean of runs); 0.52 µM in test [2] (HIF-2a PANC, run 1); 0.492 µM in test [2] (HIF-2a PANC, run 2); 1.1 µM in test [2] (HIF-2a, mean of runs). Also, the half-maximal inhibitory concentration (IC50) in test [2] (HIF-2a, run 1) is 1.08 µM; in test [2] (HIF-2a, run 2), 1.13 µM.

Take `CCOc1ccc(-c2cc(CCCC(=O)Nc3cc(OC)ccc3OC)no2)cc1`: in test [1] (mean of runs), the IC50 entry was “inactive”. Besides, the IC50 in test [1] (run 1) is 4.99 µM; in test [1] (run 2), 5.07 µM; in test [2] (HIF-2a PANC, mean of runs), 0.447 µM; in test [2] (HIF-2a PANC, run 1) it was 0.529 µM; in test [2] (HIF-2a PANC, run 2), 0.365 µM; in test [2] (HIF-2a, mean of runs), 1.99 µM. Also, the IC50 was found to be 2.32 µM in test [2] (HIF-2a, run 1) and 1.66 µM in test [2] (HIF-2a, run 2).

As for `COc1cccc(NC(=O)c2nc(S(C)(=O)=O)ncc2Cl)c1`, the IC50 entry is “inactive” in test [1] (mean of runs); “inactive” in test [2] (HIF-2a PANC, mean of runs); “inactive” in test [2] (HIF-2a, mean of runs). Also, the concentration for half-maximal inhibition (IC50) worked out at 14.7 µM in test [1] (run 1); 28.2 µM in test [1] (run 2); 32.4 µM in test [2] (HIF-2a PANC, run 1); 89.6 µM in test [2] (HIF-2a PANC, run 2); 12.2 µM in test [2] (HIF-2a, run 1); 11.3 µM in test [2] (HIF-2a, run 2).

For the molecule `C=C1C(=O)OC2CC3(C)OC3C3OC3C3=CC(OC3=O)C12` (configuration not stated), the IC50 in test [1] (mean of runs) is 36.4 µM; in test [1] (run 1), 33.9 µM; in test [1] (run 2), 38.9 µM; in test [2] (HIF-2a PANC, run 1) it was above 99 µM; in test [2] (HIF-2a PANC, run 2), 59.7 µM; in test [2] (HIF-2a, run 1) it was 11.4 µM. Besides, in test [2] (HIF-2a, run 2), the half-maximal inhibitory concentration (IC50) worked out at 10.3 µM. In test [2] (HIF-2a, mean of runs), the IC50 entry is “inactive”.

In the case of `O=C(O)c1cccc(-c2nnn(Cc3ccccc3Cl)n2)c1`, the 50% inhibitory concentration (IC50) in test [1] (run 1) was above 99 µM; in test [1] (run 2), above 99 µM; in test [2] (HIF-2a PANC, mean of runs), > 99 µM (inactive); in test [2] (HIF-2a PANC, run 1) it was above 99 µM; in test [2] (HIF-2a PANC, run 2), above 99 µM; in test [2] (HIF-2a, mean of runs) it was < 30 µM (inactive). Besides, the IC50 in test [2] (HIF-2a, run 1) is below 30 µM; in test [2] (HIF-2a, run 2), below 30 µM.

For the molecule `CCOC(=O)NC(=O)COC(=O)CCCSc1nc2ccccc2s1`, the IC50 result in test [1] (mean of runs) was “inactive”. The IC50 is 24.2 µM in test [1] (run 1); 13.4 µM in test [1] (run 2); 11.3 µM in test [2] (HIF-2a PANC, mean of runs); 12 µM in test [2] (HIF-2a PANC, run 1); 10.7 µM in test [2] (HIF-2a PANC, run 2); 9.56 µM in test [2] (HIF-2a, mean of runs). Further, the IC50 in test [2] (HIF-2a, run 1) came out at 8.83 µM; in test [2] (HIF-2a, run 2) it was 10.3 µM.

For the molecule `CCCCOC(=O)c1ccc(NC(=S)NC(=O)c2c(Br)c(C)nn2C)cc1`, the IC50 in test [1] (run 1) is above 99 µM; in test [1] (run 2) it was above 99 µM; in test [2] (HIF-2a PANC, run 1), 8.11 µM; in test [2] (HIF-2a PANC, run 2), 16.2 µM; in test [2] (HIF-2a, mean of runs) it was 0.894 µM; in test [2] (HIF-2a, run 1) it was 0.821 µM. In addition, in test [2] (HIF-2a, run 2), the IC50 came out at 0.968 µM. The IC50 result in test [2] (HIF-2a PANC, mean of runs) is “inactive”.

In the case of `O=C(Nc1ccc(N2CCOCC2)cc1)c1cnccn1`, the IC50 result in test [1] (mean of runs) is “inactive”; in test [2] (HIF-2a PANC, mean of runs) it was “inactive”. The IC50 is 14.5 µM in test [1] (run 1); 21.4 µM in test [1] (run 2); 31.5 µM in test [2] (HIF-2a PANC, run 1); 33.2 µM in test [2] (HIF-2a PANC, run 2); 9.42 µM in test [2] (HIF-2a, mean of runs); 9.5 µM in test [2] (HIF-2a, run 1). The same molecule registered an IC50 in test [2] (HIF-2a, run 2) of 9.33 µM.

Turning to `CC(C)(C)c1ccc(/C=N/Nc2ccc(C(=O)O)cc2)cc1`, in test [1] (mean of runs), the IC50 entry is “inactive”. Moreover, the IC50 was 52.5 µM in test [1] (run 1); 40.5 µM in test [1] (run 2); below 0.3 µM in test [2] (HIF-2a PANC, mean of runs); below 1 µM in test [2] (HIF-2a PANC, run 1); below 0.3 µM in test [2] (HIF-2a PANC, run 2); above 99 µM in test [2] (HIF-2a, run 1). In test [2] (HIF-2a, run 2), this molecule returned a half-inhibitory concentration (IC50) below 0.19 µM.

Regarding `O=C(O)c1cccc(NC(=S)NC(=O)c2ccc3ccccc3c2)c1`, the IC50 in test [1] (run 1) was above 99 µM; in test [1] (run 2), above 99 µM; in test [2] (HIF-2a PANC, run 1), below 30 µM; in test [2] (HIF-2a PANC, run 2), above 99 µM; in test [2] (HIF-2a, run 1), 10.9 µM; in test [2] (HIF-2a, run 2) it was 9.32 µM. Also, the IC50 entry in test [2] (HIF-2a, mean of runs) is “inactive”.

Regarding `COc1cc(OC)cc(-c2nnc(Nc3nc4c(F)cccc4s3)o2)c1`, the IC50 in test [1] (run 1) was above 99 µM; in test [1] (run 2) it was above 99 µM; in test [2] (HIF-2a PANC, mean of runs), 6.26 µM; in test [2] (HIF-2a PANC, run 1), 7.31 µM; in test [2] (HIF-2a PANC, run 2), 5.21 µM; in test [2] (HIF-2a, mean of runs), 3.15 µM. The IC50 in test [2] (HIF-2a, run 1) came to 4.09 µM; in test [2] (HIF-2a, run 2), 2.2 µM.

In the case of `O=C(c1ccccc1)N1CCSc2sccc2C1=O`, the IC50 in test [1] (mean of runs) is 56.4 µM; in test [1] (run 1), 57.6 µM; in test [1] (run 2), 55.1 µM; in test [2] (HIF-2a PANC, mean of runs), 18.9 µM; in test [2] (HIF-2a PANC, run 1) it was 28 µM; in test [2] (HIF-2a PANC, run 2) it was 9.87 µM. The IC50 in test [2] (HIF-2a, mean of runs) is 6.78 µM; in test [2] (HIF-2a, run 1), 6.98 µM; in test [2] (HIF-2a, run 2), 6.58 µM.

Turning to `CC(=O)Nc1ccc(NC(=O)c2c([N+](=O)[O-])c(C(C)(C)C)nn2C)cc1`, the IC50 entry was “inactive” in test [1] (mean of runs) and “inactive” in test [2] (HIF-2a, mean of runs). The IC50 in test [1] (run 1) is 9.31 µM; in test [1] (run 2), 22.8 µM; in test [2] (HIF-2a PANC, mean of runs), 11 µM; in test [2] (HIF-2a PANC, run 1), 11.2 µM; in test [2] (HIF-2a PANC, run 2), 10.8 µM; in test [2] (HIF-2a, run 1), 10.8 µM. Further, the 50% inhibitory concentration (IC50) in test [2] (HIF-2a, run 2) turned out to be 11.6 µM.

Take `COC(=O)COc1ccc(-c2nccc(-c3ccccn3)n2)cc1`: in test [1] (mean of runs), the IC50 entry is “inactive”. For the same molecule, the IC50 in test [1] (run 1) is 0.274 µM; in test [1] (run 2) it was 0.637 µM; in test [2] (HIF-2a PANC, mean of runs) it was 2.88 µM; in test [2] (HIF-2a PANC, run 1), 3.28 µM; in test [2] (HIF-2a PANC, run 2), 2.48 µM; in test [2] (HIF-2a, mean of runs), 1.07 µM. Also, the IC50 in test [2] (HIF-2a, run 1) was determined as 1.04 µM; in test [2] (HIF-2a, run 2) it was 1.11 µM.

For `CCOC(=O)C1CCN(C(=O)CCc2c(C)nc3cc(-c4ccccc4)nn3c2C)CC1`, the half-maximal inhibitory concentration (IC50) was 9.79 µM in test [1] (mean of runs); 12.6 µM in test [1] (run 1); 6.98 µM in test [1] (run 2); 2.16 µM in test [2] (HIF-2a PANC, mean of runs); 1.83 µM in test [2] (HIF-2a PANC, run 1); 2.48 µM in test [2] (HIF-2a PANC, run 2). Moreover, the IC50 in test [2] (HIF-2a, mean of runs) is 1.39 µM; in test [2] (HIF-2a, run 1), 1.51 µM; in test [2] (HIF-2a, run 2) it was 1.27 µM.

Turning to `Cc1nc(SCCC(=O)O)c2cc(-c3ccccc3)sc2n1`, the half-maximal inhibitory concentration (IC50) in test [1] (run 1) is above 99 µM; in test [1] (run 2), 1.56 µM; in test [2] (HIF-2a PANC, run 1) it was 1.02 µM; in test [2] (HIF-2a PANC, run 2), 1.53 µM; in test [2] (HIF-2a, mean of runs), 0.212 µM; in test [2] (HIF-2a, run 1), 0.196 µM. In test [2] (HIF-2a, run 2), this molecule returned an IC50 of 0.228 µM. Moreover, the IC50 result in test [2] (HIF-2a PANC, mean of runs) was “inactive”.

For the molecule `CC(C)(C)c1ccc(-c2noc(CCC(=O)NCc3ccco3)n2)cc1`, the IC50 in test [1] (run 1) was below 0.19 µM; in test [1] (run 2) it was 41.9 µM; in test [2] (HIF-2a PANC, mean of runs), below 3 µM; in test [2] (HIF-2a PANC, run 1) it was below 3 µM; in test [2] (HIF-2a PANC, run 2) it was below 3 µM; in test [2] (HIF-2a, mean of runs) it was below 1 µM. Moreover, the IC50 in test [2] (HIF-2a, run 1) was below 1 µM; in test [2] (HIF-2a, run 2), below 1 µM.
